Tests used:
human 5-HT2AR = molecular target: T1, human 5-HT2AR (Homo sapiens, UniProt P28223); test: HTRF-based IP1 accumulation assay (5-HT2AR antagonistic effect); type: cell-based; settings: HEK293 cells overexpressing human 5-HT2AR; serotonin at EC80
T1 construct: expressed in transfected cells; host or cells: HEK293
Description: The 5-HT2AR antagonistic effect of the test compounds was confirmed by measuring the production amount of IP1 using the HEK293 cell line permanently overexpressing the human 5-HT2AR. The test compounds were dissolved in 100% DMSO to a final concentration of 10 mM. The starting concentration of 10 μM was prepared from the stock solution, followed by serial dilutions to prepare working solutions in a buffer containing lithium chloride (LiCl). The cells and compounds prepared in the test buffer were placed in a 96-well plate and incubated at room temperature for 10 minutes. Serotonin of EC80 concentration was added, followed by incubation at 37° C. for 30 minutes in a light-shielding state. To measure IP1 accumulation in cells, JP1-d2 acceptor and IP1-Cryptate donor-which are HTRF-based substances for fluorescence signals-were added and incubated for 1 hour at room temperature in a light-shielded state. The fluorescent emission signals of acceptor and donor were detected, and HTRF ratio values were substracted by mean value of serotonin control. The percentage of activation was calculated by normalization of the serotonin control (0%) and IP1 control (100%). The IC50 values of the test compounds are represented in Table 1. (+: 1,000-2,000 nM, ++: 500-1,000 nM, +++: 100-500 nM, ++++: less than 100 nM).

mGluR5 = molecular target: T2, mGluR5 (Homo sapiens, UniProt P41594); test: Fluorescence-based Ca2+ mobilization assay; type: cell-based; settings: HEK293 cells overexpressing mGluR5; L-glutamate at EC80
T2 construct: expressed in transfected cells; host or cells: HEK293
T2 sequence (P41594 21-1212): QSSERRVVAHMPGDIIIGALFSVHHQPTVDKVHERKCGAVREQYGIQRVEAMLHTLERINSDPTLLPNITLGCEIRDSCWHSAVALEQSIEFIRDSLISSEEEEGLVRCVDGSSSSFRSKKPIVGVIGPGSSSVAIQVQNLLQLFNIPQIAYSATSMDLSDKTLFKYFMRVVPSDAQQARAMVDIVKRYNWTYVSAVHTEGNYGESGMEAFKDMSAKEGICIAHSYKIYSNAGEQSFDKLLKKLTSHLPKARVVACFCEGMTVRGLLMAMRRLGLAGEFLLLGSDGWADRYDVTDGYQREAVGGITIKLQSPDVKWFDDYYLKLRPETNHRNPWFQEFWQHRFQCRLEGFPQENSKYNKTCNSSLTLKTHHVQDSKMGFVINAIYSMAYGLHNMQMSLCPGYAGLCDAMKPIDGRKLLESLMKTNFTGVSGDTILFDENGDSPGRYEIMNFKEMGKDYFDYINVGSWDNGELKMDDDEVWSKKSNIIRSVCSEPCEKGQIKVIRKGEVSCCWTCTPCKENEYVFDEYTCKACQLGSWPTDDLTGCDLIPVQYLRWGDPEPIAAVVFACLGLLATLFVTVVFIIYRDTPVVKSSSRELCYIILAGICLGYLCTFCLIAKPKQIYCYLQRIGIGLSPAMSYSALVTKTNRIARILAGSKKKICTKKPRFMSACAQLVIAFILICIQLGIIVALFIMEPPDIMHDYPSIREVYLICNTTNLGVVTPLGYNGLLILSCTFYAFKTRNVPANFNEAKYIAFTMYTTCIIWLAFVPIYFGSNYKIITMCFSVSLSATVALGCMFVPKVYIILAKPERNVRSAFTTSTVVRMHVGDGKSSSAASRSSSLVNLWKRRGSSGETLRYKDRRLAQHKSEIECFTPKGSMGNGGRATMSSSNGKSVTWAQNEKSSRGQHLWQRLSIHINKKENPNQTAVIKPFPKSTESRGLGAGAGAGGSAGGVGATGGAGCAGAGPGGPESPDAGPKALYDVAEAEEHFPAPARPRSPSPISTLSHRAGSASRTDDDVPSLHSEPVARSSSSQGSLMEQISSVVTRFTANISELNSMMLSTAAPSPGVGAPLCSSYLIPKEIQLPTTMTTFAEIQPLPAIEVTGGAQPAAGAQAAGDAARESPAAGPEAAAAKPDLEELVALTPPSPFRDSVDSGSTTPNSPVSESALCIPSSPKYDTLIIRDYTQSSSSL
Description: In order to measure the activity on the mGluR5, an experiment was carried out to check the change in the intracellular Ca^2+ level using the HEK293 cell line permanently overexpressing the mGluR5. The cells in the cell culture medium were aliquoted into a 384-well plate coated with poly-D-lysine and cultured in a 37° C. incubator supplied with 5% CO2. The next day, the medium was removed and a dye loading buffer—in which a reagent capable of measuring Ca^2+ was dissolved—was added, and then incubated at 37° C. for 60 minutes. The test compounds were dissolved in 100% DMSO at a final concentration of 10 mM to make a stock solution. The starting concentration of […] was prepared from the stock solution, followed by serial dilutions to prepare working solutions (test compound working solutions). The test compound working solutions were added to the cells that were incubated in the dye loading buffer, which were maintained for 30 minutes at room temperature in a light-shielding state before measurement. The Ca^2+ level change induced by L-glutamate at EC80 concentration was measured for 2 minutes using FLIPR Tetra (MDS Analytical Technologies). The fluorescent Ca^2+ signal values in the presence of the test compounds were normalized to the fluorescent signal elicited by […] concentration of L-glutamate as 100% and that elicited by vehicle as 0% to estimate % inhibition of the test compounds. The efficacy of the test compounds was calculated as IC50 values and represented in Table 1. (+: 1,000-2,000 nM, ++: 500-1,000 nM, +++: 100-500 nM, ++++: less than 100 nM).

T1 sequence (P28223 whole entry): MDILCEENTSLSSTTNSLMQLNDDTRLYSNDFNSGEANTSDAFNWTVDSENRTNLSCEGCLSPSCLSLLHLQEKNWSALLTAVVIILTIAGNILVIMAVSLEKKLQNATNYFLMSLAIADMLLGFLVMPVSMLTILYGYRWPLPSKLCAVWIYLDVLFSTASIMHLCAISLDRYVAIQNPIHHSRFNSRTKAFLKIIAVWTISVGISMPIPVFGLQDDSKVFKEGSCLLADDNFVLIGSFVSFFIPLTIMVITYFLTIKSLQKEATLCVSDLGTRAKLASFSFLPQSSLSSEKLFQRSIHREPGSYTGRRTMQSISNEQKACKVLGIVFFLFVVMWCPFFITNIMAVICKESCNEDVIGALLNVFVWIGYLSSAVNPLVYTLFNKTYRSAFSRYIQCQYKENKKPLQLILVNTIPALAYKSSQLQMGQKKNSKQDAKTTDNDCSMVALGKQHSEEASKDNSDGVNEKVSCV

IC50 (human 5-HT2AR) [nM]	IC50 (mGluR5) [nM]	Compound
1000 to 2000	100 to 500	O=C(NCC1(CCCO)CCCCC1)c1ccc(C#Cc2ccccc2F)cc1 [Example 62, 4-((2-fluorophenyl)ethynyl)-N-((1-(3-hydroxypropyl)cyclohexyl)methyl)benzamide]
100 to 500	1000 to 2000	CC(C)(C)CNC1(CNC(=O)c2ccc(C#Cc3ccccc3F)cc2)CCCCC1 [Example 28, 4-((2-fluorophenyl)ethynyl)-N-((1-(neopentylamino)cyclohexyl)methyl)benzamide]
< 100	500 to 1000	O=C(NCC1(F)COC1)c1ccc(C#Cc2ccc(F)cc2F)cc1 [Example 123, 4-((2,4-difluorophenyl)ethynyl)-N-((3-fluorooxetan-3-yl)methyl)benzamide]
1000 to 2000	100 to 500	O=C(NC[C@H]1C[C@H](O)C1)c1ccc(C#Cc2ccccc2F)cc1 [Example 86, 4-((2-fluorophenyl)ethynyl)-N-(((1r,3r)-3-hydroxycyclobutyl)methyl)benzamide]
100 to 500	100 to 500	CCC1(CNC(=O)c2ccc(C#Cc3ccc(F)cc3)cc2)COC1 [Example 112, N-((3-ethyloxetan-3-yl)methyl)-4-((4-fluorophenyl)ethynyl)benzamide]
< 100	< 100	CC1(CNC(=O)c2ccc(C#Cc3ccc(F)cc3)cc2)CCCO1 (stereo not shown) [Example 116, 4-((4-fluorophenyl)ethynyl)-N-((2-methyltetrahydrofuran-2-yl)methyl)benzamide]
100 to 500	100 to 500	CC(C)NC1(CNC(=O)c2ccc(C#Cc3ccccc3F)cc2)CCOCC1 [Example 24, 4-((2-fluorophenyl)ethynyl)-N-((4-(isopropylamino)tetrahydro-2H-pyran-4-yl)methyl)benzamide]
500 to 1000	1000 to 2000	O=C(NCC1(NC2CC2)CCCCCC1)c1ccc(C#Cc2ccc(F)c(F)c2)cc1 [Example 18, N-((1-(cyclopropylamino)cycloheptyl)methyl)-4-((3,4-difluorophenyl)ethynyl)benzamide]
500 to 1000	< 100	O=C(NCC1CCCO1)c1ccc(C#Cc2ccccc2F)cc1 (stereo not shown) [Example 71, 4-((2-fluorophenyl)ethynyl)-N-((tetrahydrofuran-2-yl)methyl)benzamide]
1000 to 2000	500 to 1000	O=C(NCC1(c2cccnc2)CCCC1)c1ccc(C#Cc2ccccc2F)cc1 [Example 34, 4-((2-fluorophenyl)ethynyl)-N-((1-(pyridin-3-yl)cyclopentyl)methyl)benzamide]
< 100	500 to 1000	O=C(NC[C@@H]1CCCO1)c1ccc(C#Cc2ccc(F)cc2F)cc1 [Example 117, (S)-4-((2,4-difluorophenyl)ethynyl)-N-((tetrahydrofuran-2-yl)methyl)benzamide]
500 to 1000	100 to 500	[2H]C([2H])(NC(=O)c1ccc(C#Cc2ccccc2F)cc1)C1CCOCC1 [Example 68, 4-((2-fluorophenyl)ethynyl)-N-((tetrahydro-2H-pyran-4-yl)methyl-d2)benzamide]
500 to 1000	100 to 500	COC(=O)CC1(CNC(=O)c2ccc(C#Cc3ccccc3F)cc2)CCOCC1 [Example 75, methyl 2-(4-((4-((2-fluorophenyl)ethynyl)benzamido)methyl)tetrahydro-2H-pyran-4-yl)acetate]
100 to 500	< 100	O=C(NCC1CC(F)(F)C1)c1ccc(C#Cc2ccccc2)cc1 [Example 90, N-((3,3-difluorocyclobutyl)methyl)-4-(phenylethynyl)benzamide]
100 to 500	500 to 1000	O=C(NC[C@H]1CCOC1)c1ccc(C#Cc2ccc(F)cc2F)cc1 [Example 109, (R)-4-((2,4-difluorophenyl)ethynyl)-N-((tetrahydrofuran-3-yl)methyl)benzamide]
1000 to 2000	500 to 1000	O=C(NCC1(NC2CC2)CCC1)c1ccc(C#Cc2ccccn2)cc1 [Example 8, N-((1-(cyclopropylamino)cyclobutyl)methyl)-4-(pyridin-2-ylethynyl)benzamide]

IC50 (human 5-HT2AR) [nM]	IC50 (mGluR5) [nM]	Compound
< 100	1000 to 2000	O=C(NCC1CCO1)c1ccc(C#Cc2ccc(F)cc2F)cc1 (stereo not shown) [Example 118, 4-((2,4-difluorophenyl)ethynyl)-N-(oxetan-2-ylmethyl)benzamide]
500 to 1000	1000 to 2000	Cc1cc(C#Cc2ccc(C(=O)NCC3(NC4CC4)CCCC3)cc2)ccn1 [Example 21, N-((1-(cyclopropylamino)cyclopentyl)methyl)-4-((2-methylpyridin-4-yl)ethynyl)benzamide]
500 to 1000	< 100	[2H]C(NC(=O)c1ccc(C#Cc2ccccc2F)cc1)C1(C)COC1 (stereo not shown) [Example 95, 4-((2-fluorophenyl)ethynyl)-N-((3-methyloxetan-3-yl)methyl-d)benzamide]
500 to 1000	100 to 500	COC(=O)CC1(CNC(=O)c2ccc(C#Cc3ccccc3F)cc2)CCCCC1 [Example 74, methyl 2-(1-((4-((2-fluorophenyl)ethynyl)benzamido)methyl)cyclohexyl)acetate]
1000 to 2000	500 to 1000	CNC(=O)C1(CNC(=O)c2ccc(C#Cc3ccccc3F)cc2)CCOCC1 [Example 53, 4-((4-((2-fluorophenyl)ethynyl)benzamido)methyl)-N-methyltetrahydro-2H-pyran-4-carboxamide]
500 to 1000	< 100	O=C(NCC1(CF)CCOCC1)c1ccc(C#Cc2ccccc2F)cc1 [Example 50, N-((4-(fluoromethyl)tetrahydro-2H-pyran-4-yl)methyl)-4-((2-fluorophenyl)ethynyl)benzamide]
500 to 1000	1000 to 2000	O=C(NCC1(N2CCOCC2)CCC1)c1ccc(C#Cc2ccccc2F)cc1 [Example 96, 4-((2-fluorophenyl)ethynyl)-N-((1-morpholinocyclobutyl)methyl)benzamide]
< 100	1000 to 2000	CC1CCC(CNC(=O)c2ccc(C#Cc3ccccc3F)cc2)(NC2CC2)CC1 (stereo not shown) [Example 26, N-((1-(cyclopropylamino)-4-methylcyclohexyl)methyl)-4-((2-fluorophenyl)ethynyl)benzamide]
1000 to 2000	100 to 500	O=C(CC1(CNC(=O)c2ccc(C#Cc3ccccc3F)cc2)CCCCC1)NO [Example 79, 4-((2-fluorophenyl)ethynyl)-N-((1-(2-(hydroxyamino)-2-oxoethyl)cyclohexyl)methyl)benzamide]
1000 to 2000	1000 to 2000	CC1(CNC(=O)c2ccc(C#Cc3ccccc3F)c(F)c2)COC1 [Example 84, 3-fluoro-4-((2-fluorophenyl)ethynyl)-N-((3-methyloxetan-3-yl)methyl)benzamide]
< 100	500 to 1000	O=C(NCC1(NC2CC2)CCC1)c1ccc(C#Cc2ccc(F)cc2)cc1 [Example 6, N-((1-(cyclopropylamino)cyclobutyl)methyl)-4-((4-fluorophenyl)ethynyl)benzamide]
< 100	500 to 1000	CC(C)NC1(CNC(=O)c2ccc(C#Cc3ccccc3F)cc2)CCCC1 [Example 30, 4-((2-fluorophenyl)ethynyl)-N-((1-(isopropylamino)cyclopentyl)methyl)benzamide]
1000 to 2000	< 100	CC1(CNC(=O)c2ccc(C#Cc3ccc(F)cc3)cc2)CCCCC1 [Example 104, 4-((4-fluorophenyl)ethynyl)-N-((1-methylcyclohexyl)methyl)benzamide]
500 to 1000	1000 to 2000	O=C(O)CCC1(CNC(=O)c2ccc(C#Cc3ccccc3F)cc2)CCCCC1 [Example 61, 3-(1-((4-((2-fluorophenyl)ethynyl)benzamido)methyl)cyclohexyl)propanoic acid]
500 to 1000	< 100	O=C(NCC1(O)CCC1)c1ccc(C#Cc2ccccc2F)cc1 [Example 57, 4-((2-fluorophenyl)ethynyl)-N-((1-hydroxycyclobutyl)methyl)benzamide]
100 to 500	100 to 500	O=C(NC[C@@H]1CCCO1)c1ccc(C#Cc2ccc(F)cc2)cc1 [Example 111, (S)-4-((4-fluorophenyl)ethynyl)-N-((tetrahydrofuran-2-yl)methyl)benzamide]

From patent US12435051B2, “Dual modulator of mGluR5 and 5-HT2A receptor, and use thereof” (Vivozon Inc., priority 2020, dated 2025)
